Results: the NIST ThermoML archive (doi:10.1021/je400134d)
Numbers after ± are expanded uncertainties.

Experiment: xn = mol fraction of the nth substance listed
Settings: 100 kPa, Liquid; for speed of sound: Pulse-echo method; for mass density: Vibrating tube method

## CNc1ccccc1 [N-methylaniline] + Cc1ccccc1
293.15 K, x1 = 0.0541
  speed of sound: 1339.3 ± 1.3 m/s
  mass density: 873.9 ± 0.21 kg/m3
293.15 K, x1 = 0.0986
  speed of sound: 1350.5 ± 1.3 m/s
  mass density: 879.611 ± 0.22 kg/m3
293.15 K, x1 = 0.1502
  speed of sound: 1363.2 ± 1.4 m/s
  mass density: 886.145 ± 0.22 kg/m3
293.15 K, x1 = 0.1989
  speed of sound: 1375.1 ± 1.4 m/s
  mass density: 892.268 ± 0.23 kg/m3
293.15 K, x1 = 0.2473
  speed of sound: 1387 ± 1.4 m/s
  mass density: 898.297 ± 0.24 kg/m3
293.15 K, x1 = 0.2982
  speed of sound: 1399.7 ± 1.5 m/s
  mass density: 904.623 ± 0.25 kg/m3
293.15 K, x1 = 0.35
  speed of sound: 1412.6 ± 1.5 m/s
  mass density: 910.972 ± 0.27 kg/m3
293.15 K, x1 = 0.3898
  speed of sound: 1422.7 ± 1.6 m/s
  mass density: 915.862 ± 0.28 kg/m3
293.15 K, x1 = 0.446
  speed of sound: 1436.8 ± 1.6 m/s
  mass density: 922.654 ± 0.31 kg/m3
293.15 K, x1 = 0.4872
  speed of sound: 1447.3 ± 1.7 m/s
  mass density: 927.615 ± 0.33 kg/m3
293.15 K, x1 = 0.5426
  speed of sound: 1461.5 ± 1.8 m/s
  mass density: 934.227 ± 0.36 kg/m3
293.15 K, x1 = 0.5859
  speed of sound: 1472.7 ± 1.8 m/s
  mass density: 939.349 ± 0.39 kg/m3
293.15 K, x1 = 0.6441
  speed of sound: 1487.8 ± 1.9 m/s
  mass density: 946.179 ± 0.43 kg/m3
293.15 K, x1 = 0.6894
  speed of sound: 1499.7 ± 1.9 m/s
  mass density: 951.429 ± 0.47 kg/m3
293.15 K, x1 = 0.7385
  speed of sound: 1512.7 ± 2 m/s
  mass density: 957.096 ± 0.52 kg/m3
293.15 K, x1 = 0.7823
  speed of sound: 1524.3 ± 2.1 m/s
  mass density: 962.1 ± 0.56 kg/m3
293.15 K, x1 = 0.8377
  speed of sound: 1539.6 ± 2.1 m/s
  mass density: 968.392 ± 0.62 kg/m3
293.15 K, x1 = 0.8834
  speed of sound: 1551.3 ± 2.2 m/s
  mass density: 973.522 ± 0.68 kg/m3
293.15 K, x1 = 0.9299
  speed of sound: 1563.7 ± 2.3 m/s
  mass density: 978.698 ± 0.74 kg/m3
298.15 K, x1 = 0.0532
  speed of sound: 1317.9 ± 1.3 m/s
  mass density: 869.146 ± 0.21 kg/m3
298.15 K, x1 = 0.0998
  speed of sound: 1329.6 ± 1.3 m/s
  mass density: 875.098 ± 0.22 kg/m3
298.15 K, x1 = 0.1518
  speed of sound: 1342.7 ± 1.4 m/s
  mass density: 881.77 ± 0.22 kg/m3
298.15 K, x1 = 0.1906
  speed of sound: 1352.4 ± 1.4 m/s
  mass density: 886.675 ± 0.23 kg/m3
298.15 K, x1 = 0.2452
  speed of sound: 1366 ± 1.4 m/s
  mass density: 893.525 ± 0.24 kg/m3
298.15 K, x1 = 0.2887
  speed of sound: 1377 ± 1.5 m/s
  mass density: 898.955 ± 0.25 kg/m3
298.15 K, x1 = 0.3417
  speed of sound: 1390.3 ± 1.5 m/s
  mass density: 905.492 ± 0.26 kg/m3
298.15 K, x1 = 0.39
  speed of sound: 1402.7 ± 1.6 m/s
  mass density: 911.437 ± 0.28 kg/m3
298.15 K, x1 = 0.4434
  speed of sound: 1416.3 ± 1.6 m/s
  mass density: 917.945 ± 0.3 kg/m3
298.15 K, x1 = 0.49
  speed of sound: 1428.3 ± 1.7 m/s
  mass density: 923.58 ± 0.33 kg/m3
298.15 K, x1 = 0.5415
  speed of sound: 1441.7 ± 1.8 m/s
  mass density: 929.747 ± 0.36 kg/m3
298.15 K, x1 = 0.5792
  speed of sound: 1451.5 ± 1.8 m/s
  mass density: 934.236 ± 0.38 kg/m3
298.15 K, x1 = 0.6432
  speed of sound: 1468.4 ± 1.9 m/s
  mass density: 941.787 ± 0.43 kg/m3
298.15 K, x1 = 0.6868
  speed of sound: 1479.9 ± 1.9 m/s
  mass density: 946.88 ± 0.47 kg/m3
298.15 K, x1 = 0.7407
  speed of sound: 1494.3 ± 2 m/s
  mass density: 953.128 ± 0.52 kg/m3
298.15 K, x1 = 0.7823
  speed of sound: 1505.4 ± 2.1 m/s
  mass density: 957.907 ± 0.56 kg/m3
298.15 K, x1 = 0.8378
  speed of sound: 1520.4 ± 2.1 m/s
  mass density: 964.233 ± 0.62 kg/m3
298.15 K, x1 = 0.8844
  speed of sound: 1533 ± 2.2 m/s
  mass density: 969.501 ± 0.68 kg/m3
298.15 K, x1 = 0.934
  speed of sound: 1546.4 ± 2.3 m/s
  mass density: 975.057 ± 0.74 kg/m3
303.15 K, x1 = 0.053
  speed of sound: 1297.3 ± 1.3 m/s
  mass density: 864.574 ± 0.21 kg/m3
303.15 K, x1 = 0.0982
  speed of sound: 1308.8 ± 1.3 m/s
  mass density: 870.409 ± 0.21 kg/m3
303.15 K, x1 = 0.1501
  speed of sound: 1321.9 ± 1.4 m/s
  mass density: 877.091 ± 0.22 kg/m3
303.15 K, x1 = 0.1929
  speed of sound: 1332.7 ± 1.4 m/s
  mass density: 882.501 ± 0.23 kg/m3
303.15 K, x1 = 0.2456
  speed of sound: 1346.1 ± 1.4 m/s
  mass density: 889.168 ± 0.24 kg/m3
303.15 K, x1 = 0.2837
  speed of sound: 1355.7 ± 1.5 m/s
  mass density: 893.953 ± 0.24 kg/m3
303.15 K, x1 = 0.3444
  speed of sound: 1371.2 ± 1.5 m/s
  mass density: 901.518 ± 0.26 kg/m3
303.15 K, x1 = 0.3919
  speed of sound: 1383.4 ± 1.6 m/s
  mass density: 907.37 ± 0.28 kg/m3
303.15 K, x1 = 0.4478
  speed of sound: 1397.8 ± 1.6 m/s
  mass density: 914.21 ± 0.3 kg/m3
303.15 K, x1 = 0.4918
  speed of sound: 1409.3 ± 1.7 m/s
  mass density: 919.549 ± 0.33 kg/m3
303.15 K, x1 = 0.5391
  speed of sound: 1421.7 ± 1.8 m/s
  mass density: 925.243 ± 0.35 kg/m3
303.15 K, x1 = 0.5886
  speed of sound: 1434.7 ± 1.8 m/s
  mass density: 931.18 ± 0.39 kg/m3
303.15 K, x1 = 0.6395
  speed of sound: 1448.2 ± 1.9 m/s
  mass density: 937.212 ± 0.43 kg/m3
303.15 K, x1 = 0.6846
  speed of sound: 1460.2 ± 1.9 m/s
  mass density: 942.503 ± 0.46 kg/m3
303.15 K, x1 = 0.7398
  speed of sound: 1475 ± 2 m/s
  mass density: 948.933 ± 0.52 kg/m3
303.15 K, x1 = 0.7782
  speed of sound: 1485.3 ± 2.1 m/s
  mass density: 953.381 ± 0.55 kg/m3
303.15 K, x1 = 0.842
  speed of sound: 1502.3 ± 2.1 m/s
  mass density: 960.67 ± 0.62 kg/m3
303.15 K, x1 = 0.879
  speed of sound: 1512.7 ± 2.2 m/s
  mass density: 964.897 ± 0.67 kg/m3
303.15 K, x1 = 0.934
  speed of sound: 1527.6 ± 2.3 m/s
  mass density: 971.087 ± 0.74 kg/m3
